Measured values reported in publication PMC3907678 (Tumour Biology, 2013).

Biological target: PDE1 (calmodulin-dependent 3,5-cyclic-nucleotide phosphodiesterase)
Experiment: CaM-dependent PDE1 cAMP hydrolysis assay, Lineweaver-Burk and Dixon plots
Format: biochemical

C[C@@H]1CC[C@H]2[C@@H](C)C(=O)O[C@@H]3O[C@@]4(C)CC[C@@H]1[C@]32OO4 [artemisinin]
Ki: 10 µM
